≈ marks a conversion by molar mass, not a printed value. Each block holds one compound with its values, some of them ahead of it. Square brackets hold non-standard residues; d marks the D form. Peptide text beside a SMILES is read from it. * marks the point of attachment. ξ: configuration not given here. ξEnduracididine(βξ-OH,4'ξ) = N=C1NCC(C(O)C(N)C(=O)O)N1; X2 = OCC1OC(OC2C(CO)OC(*)C(O)C2O)C(O)C(O)C1O
How the values were obtained:
Experiment in all cases: in vitro antibacterial evaluation, MIC by broth dilution
Assay type in all cases: cell-based
[1] = system: Streptococcus sp.; details: broth dilution, 18 hours at 35° C.; for MIC Streptococcus pneumoniae (ATCC 6301): strain ATCC 6301; for MIC Streptococcus pneumoniae (GC 1894): strain GC 1894; for MIC Streptococcus pyogenes (GC 4563): strain GC 4563; for MIC Streptococcus agalactiae (GC 4564): strain GC 4564; for MIC Streptococcus pneumoniae (GC 4565): strain GC 4565
How it was run: (§1)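 Inoculum 5×10^5 CFU/mL; concentrations 64 to 0.06 μg/mL; MIC defined as lowest inhibitory level. Conducted by broth dilution under NCCLS guidelines.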

[2] = system: Enterococcus sp.; details: broth dilution, 18 hours at 35° C.; for MIC Enterococcus faecalis (GC 2242): strain GC 2242; for MIC Enterococcus faecalis (GC 2691): strain GC 2691; for MIC Enterococcus faecalis (GC 3059): strain GC 3059; for MIC Enterococcus faecalis (GC 4552): strain GC 4552
How it was run: as §1

[3] = system: Staphylococcus sp.; details: broth dilution, 18 hours at 35° C.
How it was run: as §1

[4] = system: Escherichia coli; details: 18 hours at 35° C.
How it was run: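 MIC = lowest antibiotic concentration preventing visible growth; inoculum 5×10^5 CFU/mL; drug range 64-0.06 μg/mL; Muller-Hinton II […]; NCCLS M7-A2 guidance.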

[5] = Enterococcus faecalis (ATCC 29212)
[6] = Enterococcus faecalis (GC 4553)
[7] = Enterococcus faecalis (GC 4554)
[8] = Enterococcus faecalis (GC 6189)

MIC Streptococcus pneumoniae (ATCC 6301) [1]: 64 µg/mL (≈ 48.8 µM) | MIC Streptococcus pneumoniae (GC 1894) [1]: 64 µg/mL (≈ 48.8 µM) | MIC Streptococcus pyogenes (GC 4563) [1]: >64 µg/mL | MIC Streptococcus agalactiae (GC 4564) [1]: >64 µg/mL | MIC Streptococcus pneumoniae (GC 4565) [1]: 64 µg/mL (≈ 48.8 µM) | MIC Enterococcus avium (GC 4558) ([2]; Enterococcus avium (GC 4558)): 64 µg/mL (≈ 48.8 µM) | MIC Enterococcus faecalis (ATCC 29212) [2, 5]: >64 µg/mL | MIC Enterococcus faecalis (GC 4553) [2, 6]: >64 µg/mL | MIC Enterococcus faecalis (GC 4554) [2, 7]: >64 µg/mL | MIC Enterococcus faecalis (GC 6189) [2, 8]: >64 µg/mL | MIC Enterococcus faecium (GC 2243) ([2]; Enterococcus faecium (GC 2243)): >64 µg/mL | MIC Enterococcus faecium (GC 4556) ([2]; Enterococcus faecium (GC 4556)): >64 µg/mL | MIC Enterococcus faecium (GC 4557) ([2]; Enterococcus faecium (GC 4557)): 64 µg/mL (≈ 48.8 µM) | MIC Enterococcus faecalis (ATCC 29212) ([2]; strain ATCC 29212): >64 µg/mL | MIC Enterococcus faecalis (GC 2242) [2]: >64 µg/mL | MIC Enterococcus faecium (GC 2243) ([2]; strain GC 2243): >64 µg/mL | MIC Enterococcus faecalis (GC 2691) [2]: >64 µg/mL | MIC Enterococcus faecalis (GC 3059) [2]: >64 µg/mL | MIC Enterococcus faecalis (GC 4552) [2]: >64 µg/mL | MIC Enterococcus faecalis (GC 4553) ([2]; strain GC 4553): >64 µg/mL | MIC Enterococcus faecalis (GC 4554) ([2]; strain GC 4554): >64 µg/mL | MIC Enterococcus faecium (GC 4556) ([2]; strain GC 4556): >64 µg/mL | MIC Enterococcus faecium (GC 4557) ([2]; strain GC 4557): 64 µg/mL (≈ 48.8 µM) | MIC Enterococcus avium (GC 4558) ([2]; strain GC 4558): 64 µg/mL (≈ 48.8 µM) | MIC Enterococcus faecalis (GC 6189) ([2]; strain GC 6189): >64 µg/mL | MIC Coagulase Negative Staphylococcus (GC 4547) [3]: >64 µg/mL | MIC Coagulase Negative Staphylococcus (GC 4548) [3]: >64 µg/mL | MIC Coagulase Negative Staphylococcus (GC 4549) [3]: >64 µg/mL | MIC Coagulase Negative Staphylococcus (GC 4551) [3]: >64 µg/mL | MIC Coagulase Negative Staphylococcus (GC 6257) [3]: >64 µg/mL | MIC Staphylococcus aureus (ATCC 29213) [3]: >64 µg/mL | MIC Staphylococcus aureus (GC 1131) [3]: >64 µg/mL | MIC Staphylococcus aureus (GC 3051) [3]: >64 µg/mL | MIC Staphylococcus aureus (GC 3053) [3]: >64 µg/mL | MIC Staphylococcus aureus (GC 4541) [3]: >64 µg/mL | MIC Staphylococcus aureus (GC 4542) [3]: >64 µg/mL | MIC Staphylococcus aureus (GC 4544) [3]: >64 µg/mL | MIC Staphylococcus aureus (GC 4545) [3]: >64 µg/mL | MIC Staphylococcus aureus-SMITH (GC 4543) [3]: >64 µg/mL | MIC Staphylococcus aureus (ATCC 29213) ([3]; strain ATCC 29213): >64 µg/mL | MIC Staphylococcus aureus (GC 1131) ([3]; strain GC 1131): >64 µg/mL | MIC Staphylococcus aureus (GC 3051) ([3]; strain GC 3051): >64 µg/mL | MIC Staphylococcus aureus (GC 3053) ([3]; strain GC 3053): >64 µg/mL | MIC Staphylococcus aureus (GC 4541) ([3]; strain GC 4541): >64 µg/mL | MIC Staphylococcus aureus (GC 4542) ([3]; strain GC 4542): >64 µg/mL | MIC Staphylococcus aureus (GC 4544) ([3]; strain GC 4544): >64 µg/mL | MIC Staphylococcus aureus (GC 4545) ([3]; strain GC 4545): >64 µg/mL | MIC Coagulase Negative Staphylococcus (GC 4547) ([3]; strain GC 4547): >64 µg/mL | MIC Coagulase Negative Staphylococcus (GC 4548) ([3]; strain GC 4548): >64 µg/mL | MIC Coagulase Negative Staphylococcus (GC 4549) ([3]; strain GC 4549): >64 µg/mL | MIC Coagulase Negative Staphylococcus (GC 4551) ([3]; strain GC 4551): >64 µg/mL | MIC Coagulase Negative Staphylococcus (GC 6257) ([3]; strain GC 6257): >64 µg/mL | MIC Staphylococcus aureus-SMITH (GC 4543) ([3]; strain SMITH GC 4543): >64 µg/mL | MIC Escherichia coli (ATCC 25922) [4]: >64 µg/mL | MIC Escherichia coli (GC 4559) [4]: >64 µg/mL | MIC Escherichia coli (GC 4560) [4]: >64 µg/mL
SMILES: CC(c1ccccc1)C1NC(=O)CNC(=O)C(CO)NC(=O)C(C(O)C2CNC(=N)N2C2OC(CO)C(O)C(O)C2O)NC(=O)C(C(O)C2CNC(=N)N2)NC(=O)C(Cc2ccc(OC3OC(CO)C(OC4OC(CO)C(O)C(O)C4O)C(O)C3O)c(N)c2)NC1=O (stereo not drawn) [Example 287, Cyclo[glycyl-β-methylphenylalanyl-2-amino-O-(4-O-hexopyranosylhexopyranosyl)tyrosyl-3-(2-iminoimidazolidin-4-yl)seryl-3-(3-hexopyranosyl-2-iminoimidazolidin-4-yl)serylseryl]]
MIC Staphylococcus haemolyticus (GC 4546) [3]: >64 µg/mL | MIC Staphylococcus haemolyticus (GC 4546) ([3]; strain GC 4546): >64 µg/mL

MIC Streptococcus pneumoniae (ATCC 6301) [1]: >128 µg/mL | MIC Streptococcus pneumoniae (GC 1894) [1]: 128 µg/mL (≈ 114 µM) | MIC Streptococcus pyogenes (GC 4563) [1]: >128 µg/mL | MIC Streptococcus agalactiae (GC 4564) [1]: >128 µg/mL | MIC Streptococcus pneumoniae (GC 4565) [1]: >128 µg/mL | MIC Enterococcus avium (GC 4558) ([2]; Enterococcus avium (GC 4558)): 128 µg/mL (≈ 114 µM) | MIC Enterococcus faecalis (ATCC 29212) [2, 5]: >128 µg/mL | MIC Enterococcus faecalis (GC 4553) [2, 6]: >128 µg/mL | MIC Enterococcus faecalis (GC 4554) [2, 7]: >128 µg/mL | MIC Enterococcus faecalis (GC 6189) [2, 8]: >128 µg/mL | MIC Enterococcus faecium (GC 2243) ([2]; Enterococcus faecium (GC 2243)): >128 µg/mL | MIC Enterococcus faecium (GC 4556) ([2]; Enterococcus faecium (GC 4556)): >128 µg/mL | MIC Enterococcus faecium (GC 4557) ([2]; Enterococcus faecium (GC 4557)): 128 µg/mL (≈ 114 µM) | MIC Enterococcus faecalis (ATCC 29212) ([2]; strain ATCC 29212): >128 µg/mL | MIC Enterococcus faecalis (GC 2242) [2]: >128 µg/mL | MIC Enterococcus faecium (GC 2243) ([2]; strain GC 2243): >128 µg/mL | MIC Enterococcus faecalis (GC 2691) [2]: >128 µg/mL | MIC Enterococcus faecalis (GC 3059) [2]: >128 µg/mL | MIC Enterococcus faecalis (GC 4552) [2]: >128 µg/mL | MIC Enterococcus faecalis (GC 4553) ([2]; strain GC 4553): >128 µg/mL | MIC Enterococcus faecalis (GC 4554) ([2]; strain GC 4554): >128 µg/mL | MIC Enterococcus faecium (GC 4556) ([2]; strain GC 4556): >128 µg/mL | MIC Enterococcus faecium (GC 4557) ([2]; strain GC 4557): 128 µg/mL (≈ 114 µM) | MIC Enterococcus avium (GC 4558) ([2]; strain GC 4558): 128 µg/mL (≈ 114 µM) | MIC Enterococcus faecalis (GC 6189) ([2]; strain GC 6189): >128 µg/mL | MIC Coagulase Negative Staphylococcus (GC 4547) [3]: >128 µg/mL | MIC Coagulase Negative Staphylococcus (GC 4548) [3]: >128 µg/mL | MIC Coagulase Negative Staphylococcus (GC 4549) [3]: >128 µg/mL | MIC Coagulase Negative Staphylococcus (GC 4551) [3]: >128 µg/mL | MIC Staphylococcus aureus (ATCC 29213) [3]: >128 µg/mL | MIC Staphylococcus aureus (GC 1131) [3]: >128 µg/mL | MIC Staphylococcus aureus (GC 3051) [3]: >128 µg/mL | MIC Staphylococcus aureus (GC 3053) [3]: >128 µg/mL | MIC Staphylococcus aureus (GC 4541) [3]: >128 µg/mL | MIC Staphylococcus aureus (GC 4542) [3]: >128 µg/mL | MIC Staphylococcus aureus (GC 4544) [3]: >128 µg/mL | MIC Staphylococcus aureus (GC 4545) [3]: >128 µg/mL | MIC Staphylococcus aureus-SMITH (GC 4543) [3]: >128 µg/mL | MIC Staphylococcus aureus (ATCC 29213) ([3]; strain ATCC 29213): >128 µg/mL | MIC Staphylococcus aureus (GC 1131) ([3]; strain GC 1131): >128 µg/mL | MIC Staphylococcus aureus (GC 3051) ([3]; strain GC 3051): >128 µg/mL | MIC Staphylococcus aureus (GC 3053) ([3]; strain GC 3053): >128 µg/mL | MIC Staphylococcus aureus (GC 4541) ([3]; strain GC 4541): >128 µg/mL | MIC Staphylococcus aureus (GC 4542) ([3]; strain GC 4542): >128 µg/mL | MIC Staphylococcus aureus (GC 4544) ([3]; strain GC 4544): >128 µg/mL | MIC Staphylococcus aureus (GC 4545) ([3]; strain GC 4545): >128 µg/mL | MIC Coagulase Negative Staphylococcus (GC 4547) ([3]; strain GC 4547): >128 µg/mL | MIC Coagulase Negative Staphylococcus (GC 4548) ([3]; strain GC 4548): >128 µg/mL | MIC Coagulase Negative Staphylococcus (GC 4549) ([3]; strain GC 4549): >128 µg/mL | MIC Coagulase Negative Staphylococcus (GC 4551) ([3]; strain GC 4551): >128 µg/mL | MIC Staphylococcus aureus-SMITH (GC 4543) ([3]; strain SMITH GC 4543): >128 µg/mL | MIC Escherichia coli (ATCC 25922) [4]: >128 µg/mL | MIC Escherichia coli (GC 4559) [4]: >128 µg/mL | MIC Escherichia coli (GC 4560) [4]: >128 µg/mL
SMILES: N=C1NCC(C(O)C2NC(=O)C(Cc3ccc(OC4OC(CO)C(OC5OC(CO)C(O)C(O)C5O)C(O)C4O)cc3)NC(=O)C(Cc3ccccc3)NC(=O)CNC(=O)C(CO)NC(=O)C(C(O)C3CNC(=N)N3)NC2=O)N1 (stereo not drawn) [Example 296, Cyclo[glycylphenylalanyl-O-(4-O-hexopyranosylhexopyranosyl)tyrosyl-3-(2-iminoimidazolidin-4-yl)seryl-3-(2-iminoimidazolidin-4-yl)serylseryl]] (cyclo(GFY(X2)[ξEnduracididine(βξ-OH,4'ξ)][ξEnduracididine(βξ-OH,4'ξ)]S); configuration not given here)
MIC Staphylococcus haemolyticus (GC 4546) [3]: >128 µg/mL | MIC Staphylococcus haemolyticus (GC 4546) ([3]; strain GC 4546): >128 µg/mL

Source: US6914045B2, “Glycopeptide antibiotics” (Wyeth Holdings Corporation, priority 2001, dated 2005)
